Assay results from the Deep4Chem optical property database.
Values belong to the compound of their own block, whether it stands above or below them.

Experiment: solvent given as SMILES

SMILES: COc1ccc2c(-c3nc(-c4cccc(C)c4)no3)cc(=O)oc2c1
- absorption maximum (in CCO): 401 nm
- absorption maximum (in ClC(Cl)Cl): 403 nm

SMILES: CCC1=C(C)C2=Cc3c(I)c(I)cn3[B-](F)(F)[N+]2=C1C
- absorption maximum (in C1CCCCC1): 527.5 nm
- absorption maximum (in CC(C)=O): 509 nm
- absorption maximum (in CCO): 517.5 nm
- absorption maximum (in CCOC(C)=O): 515 nm
- absorption maximum (in CO): 513 nm
- absorption maximum (in OCC(F)(F)F): 501 nm

SMILES: CC1=NN(c2ccccc2)C(=O)/C1=C/c1cn(-c2ccccc2)nc1-c1ccccc1
- absorption maximum (in C1CCOC1): 365 nm
- absorption maximum (in C1COCCO1): 366 nm
- absorption maximum (in CCO): 367 nm
- absorption maximum (in CCOC(C)=O): 364 nm
- absorption maximum (in CN(C)C=O): 367 nm
- absorption maximum (in CO): 364 nm
- absorption maximum (in CS(C)=O): 370 nm
- absorption maximum (in Cc1ccccc1): 369 nm
- absorption maximum (in ClC(Cl)Cl): 368 nm
- absorption maximum (in ClCCl): 368 nm

SMILES: Cc1ccc(-n2c(-c3ccccc3N)nc3c4ccccc4c4ccccc4c32)cc1
- absorption maximum (in Cc1ccccc1): 311 nm

SMILES: Cc1ccc(/C=C/c2ccccc2-[n+]2noc([O-])c2C)cc1
- absorption maximum (in C1CCCCC1): 314 nm
- absorption maximum (in CC#N): 310 nm
- absorption maximum (in CCO): 312 nm

SMILES: Oc1c(-c2ccco2)cccc1-c1nc2ccccc2s1
- absorption maximum (in ClCCl): 360 nm
- absorption maximum (in O): 360 nm

SMILES: c1ccc([B-]2(c3ccccc3)Oc3ccc4ccccc4c3-c3c4ccccc4nc[n+]32)cc1
- absorption maximum (in Cc1ccccc1): 451 nm

SMILES: COc1ccc(/C=C/C(=O)c2c(O)cc(C)oc2=O)cc1
- absorption maximum (in CC#N): 380 nm
- absorption maximum (in ClCCl): 384 nm

SMILES: COC(=O)c1cc(=O)n(C)c2cc(-c3ccccc3OC)sc12
- absorption maximum (in CC#N): 396 nm
- absorption maximum (in ClCCl): 398 nm

SMILES: CC/[NH+]=c1\cc2oc3cc(NCCNC(=O)C(NC(=O)OC(C)(C)C)C(C)C)c4ccccc4c3nc-2cc1C (stereo unspecified)
- absorption maximum (in CCO): 590 nm
- absorption maximum (in O): 590 nm

SMILES: Cc1ccccc1C(=O)NN1C2=C(CC3=C1CC(C)(C)CC3=O)C(=O)CC(C)(C)C2
- absorption maximum (in C1CCOC1): 370 nm
- absorption maximum (in CC#N): 370 nm
- absorption maximum (in CC(C)=O): 368 nm
- absorption maximum (in CCCCCO): 378 nm
- absorption maximum (in CO): 376 nm
- absorption maximum (in ClC(Cl)Cl): 370 nm
- absorption maximum (in ClCCl): 368 nm

SMILES: CCN(CC)c1ccc(/N=N/c2nc3ccc(OC)cc3s2)cc1
- absorption maximum (in CC#N): 515 nm
- absorption maximum (in ClCCl): 517 nm

SMILES: CC(C)(C)c1ccc2c(c1)c1cc(C(C)(C)C)ccc1n2-c1cccc(-c2nc(-c3cccc(-n4c5ccc(C(C)(C)C)cc5c5cc(C(C)(C)C)ccc54)c3)nc(-c3cccc(P(=O)(c4ccccc4)c4ccccc4)c3)n2)c1
- absorption maximum (in C1CCOC1): 344.36 nm
- absorption maximum (in CC#N): 344.36 nm
- absorption maximum (in CC(C)=O): 344.36 nm
- absorption maximum (in CN(C)C=O): 344.36 nm
- absorption maximum (in Cc1ccccc1): 344.36 nm
- absorption maximum (in ClC(Cl)Cl): 344.36 nm
- absorption maximum (in ClCCl): 344.36 nm

SMILES: O=C(c1ccc2c3c(cccc13)-c1cccc3c1C2CC=C3)c1c(Cc2ccccc2)c2ccc3cccc4c5cccc6ccc1c(c65)c2c34 (stereo unspecified)
- absorption maximum (in ClCCl): 467 nm

SMILES: Cc1cccc2nc(-c3ccc(-c4cc(=O)cc(-c5ccccc5)o4)cc3)c(NC3CCCCC3)n12
- absorption maximum (in ClCCl): 356 nm

SMILES: C(=C\c1ccc(Nc2ccccc2)cc1)/c1ccccc1
- absorption maximum (in CC#N): 351 nm
- absorption maximum (in CCCCCC): 346 nm

SMILES: CCC1(CC)c2ccccc2-c2c1c1c(c3c2C(CC)(CC)c2cc(N(c4ccccc4)c4ccccc4)ccc2-3)C(CC)(CC)c2ccccc2-1
- absorption maximum (in C1CCOC1): 356 nm
- absorption maximum (in CC#N): 353 nm
- absorption maximum (in CC(C)=O): 354 nm
- absorption maximum (in CCCCCC): 356 nm
- absorption maximum (in Cc1ccccc1): 360 nm

SMILES: CCCCc1ccc(-n2c3c(c4c2c2c(n4-c4ccc(CCCC)cc4)-c4cc(F)ccc4NB2c2ccccc2)B(c2ccccc2)Nc2ccc(F)cc2-3)cc1
- absorption maximum (in Cc1ccccc1): 395 nm

SMILES: N#Cc1ccc(N2c3ccccc3C(c3ccccc3)(c3ccccc3)c3ccccc32)cc1
- absorption maximum (in Cc1ccccc1): 352 nm

SMILES: O=C1CC(c2ccc(Cl)cc2)c2c(c3ccccc3c3nc4ccccc4nc23)O1 (stereo unspecified)
- absorption maximum (in ClC(Cl)Cl): 410 nm

SMILES: Cc1cc(-c2nc(-c3ccccc3)nc(-c3ccccc3)n2)ccc1-c1ccc2c(c1)C1(c3ccccc3-c3ccccc31)c1ccccc1N2c1ccccc1
- absorption maximum (in c1cc(-c2cccc(-n3c4ccccc4c4ccccc43)c2)cc(-n2c3ccccc3c3ccccc32)c1): 371.92 nm

SMILES: CC(C)(C)c1ccc2c(c1)c1cc(C(C)(C)C)ccc1n2-c1ccc(N(c2ccc(-c3ccc(-c4ccc(N(c5ccc(-n6c7ccc(C(C)(C)C)cc7c7cc(C(C)(C)C)ccc76)cc5)c5ccc(-n6c7ccc(C(C)(C)C)cc7c7cc(C(C)(C)C)ccc76)cc5)cc4)c4nsnc34)cc2)c2ccc(-n3c4ccc(C(C)(C)C)cc4c4cc(C(C)(C)C)ccc43)cc2)cc1
- absorption maximum (in ClCCl): 462 nm

SMILES: CCN(CC)c1ccc2c(c1)OC1=C(/C=C/C3=[N+](C)c4ccccc4C3(C)C)CCCC1=C2c1ccccc1C(=O)O
- absorption maximum (in CC#N): 708 nm
- absorption maximum (in CCO): 700 nm
- absorption maximum (in CO): 700 nm
- absorption maximum (in ClC(Cl)Cl): 716 nm

SMILES: Cc1cc(-c2ccc(C(C)(C)C)cc2)c2nsnc2c1-c1ccc(C(C)(C)C)cc1
- absorption maximum (in ClCCl): 376 nm

SMILES: COC(=O)c1c(-c2cc3ccccc3oc2=O)nn(-c2cccc(F)c2)c1C(=O)OC
- absorption maximum (in ClCCl): 323 nm

SMILES: CC(C)(C)c1ccc2c(c1)c1cc(C(C)(C)C)ccc1n2-c1ccc(S(=O)(=O)c2ccc(S(=O)(=O)c3ccc(-n4c5ccc(C(C)(C)C)cc5c5cc(C(C)(C)C)ccc54)cc3)cc2)cc1
- absorption maximum (in Cc1ccccc1): 363 nm

SMILES: CCOC(=O)C(C(=O)OCC)C1=[N+]2C(=C(c3ccc(C)cc3)c3ccc(Cl)n3[B-]2(F)F)C=C1
- absorption maximum (in C1CCCCC1): 514 nm
- absorption maximum (in C1CCOC1): 511 nm
- absorption maximum (in CCOC(C)=O): 509 nm
- absorption maximum (in CO): 508 nm
- absorption maximum (in Cc1ccccc1): 515 nm
- absorption maximum (in ClC(Cl)Cl): 513 nm

SMILES: COc1cc2c(cc1OC)C1=C[C@H](c3ccc(C)cc3)C3(C(C#N)=C(C#N)N1CC2)c1cc(Br)ccc1-c1ccc(Br)cc13
- absorption maximum (in ClCCl): 315 nm

SMILES: CC(C)CCCN1c2ccccc2CCc2ccccc21
- absorption maximum (in CC#N): 276 nm
- absorption maximum (in CO): 276 nm

SMILES: CC[N+](CC)=c1ccc2nc3c(cc(NCCC(=O)NC(C)C(=O)OC)c4ccccc43)oc-2c1 (stereo unspecified)
- absorption maximum (in CCO): 600 nm
- absorption maximum (in O): 580 nm

SMILES: COc1ccc(-c2cccc3ncc(-c4ccccc4)n23)cc1
- absorption maximum (in ClCCl): 332 nm

SMILES: CCOC(=O)C1=C(C)NC2=C(C(=O)c3ccccc32)C1c1ccc(N(C)C)cc1 (stereo unspecified)
- absorption maximum (in C1CCOC1): 374 nm
- absorption maximum (in C1COCCO1): 373 nm
- absorption maximum (in CC#N): 379 nm
- absorption maximum (in CCO): 395 nm
- absorption maximum (in CN(C)C=O): 385 nm
- absorption maximum (in CO): 389 nm
- absorption maximum (in CS(C)=O): 400 nm
- absorption maximum (in ClC(Cl)(Cl)Cl): 371 nm
- absorption maximum (in ClC(Cl)Cl): 383 nm
- absorption maximum (in ClCCl): 387 nm

SMILES: CCOC(=O)CSc1nc(-c2ccc(OC)cc2)c(C)c(C#N)c1C#N
- absorption maximum (in c1ccccc1): 374 nm

SMILES: C[Si](C)(C)c1sc([Si](C)(C)C)c2c1sc1ccsc12
- absorption maximum (in ClC(Cl)Cl): 310 nm

SMILES: CCCCCCCCCCC(CCCCCCCCCC)Cn1c2cc(-c3ccc(C(C)(C)C)cc3)c3cccc4c5ccc6c7cc(-c8cc(C(C)(C)C)cc(C(C)(C)C)c8)n8c7c(c7cc1c(c5c76)c2c34)=C1C=CC(c2cc(C(C)(C)C)cc(C(C)(C)C)c2)=[N+]1[B-]8(F)F
- absorption maximum (in Cc1ccccc1): 780 nm

Now from value to compound:

- absorption maximum (in ClCCl): 322 nm
SMILES: CCOC(=O)c1c(-c2cc3ccccc3oc2=O)nn(-c2ccc(C)c(C)c2)c1C(=O)OCC

- absorption maximum (in O): 398 nm
SMILES: CC(=O)Nc1ccc2c(c1)c(=O)c1ccccc1n2CCCCCC(=O)O

- absorption maximum (in ClC(Cl)Cl): 652 nm
SMILES: Cc1ccc(C2=CC(c3ccc(C)cc3)=[N+]3C2=Nc2c(-c4ccc(C)cc4)cc(-c4ccc(C)cc4)n2[B-]3(F)F)cc1

- absorption maximum (in CO): 564 nm
SMILES: CC1=CC(/C=C/c2ccc(OCCCN=[N+]=[N-])cc2)=[N+]2C1=C(c1ccccc1)c1c(C)cc(C)n1[B-]2(F)F

- absorption maximum (in C1CCOC1): 397.48 nm
SMILES: CC(C)(C)c1ccc(-c2nc(-c3ccc(C(C)(C)C)cc3)nc(-c3cc(C#N)c(-n4c5ccccc5c5c6oc7ccccc7c6ccc54)c(C#N)c3)n2)cc1

- absorption maximum (in ClCCl): 329 nm
SMILES: O=Cc1ccc2c(c1)c1ccccc1n2-c1ccc(-c2ccc(-n3c4ccccc4c4cc(C=O)ccc43)cc2)cc1

- absorption maximum (in CCO): 259 nm
- absorption maximum (in ClC(Cl)Cl): 360 nm
SMILES: COc1ccc2c(-c3nc(-c4cccc(Br)c4)no3)cc(=O)oc2c1

- absorption maximum (in ClCCl): 726 nm
SMILES: CC(C)(C)c1cc(-c2c3cc(c(-c4cc(C(C)(C)C)cc(C(C)(C)C)c4)c4ccc([nH]4)c(-c4ccc([N+](=O)[O-])cc4)c4nc(c(-c5ccc([N+](=O)[O-])cc5)c5ccc2[nH]5)C=C4)N=C3)cc(C(C)(C)C)c1

- absorption maximum (in C1CCOC1): 593 nm
SMILES: CC1=C(C#Cc2ccc(N(c3ccccc3)c3ccccc3)cc2)C(C)=[N+]2C1=C(c1ccccc1)c1c(C)c(C#Cc3ccc(N(c4ccccc4)c4ccccc4)cc3)c(C)n1[B-]2(F)F

- absorption maximum (in ClCCl): 492 nm
SMILES: CCCCc1ccc2c(c1)c1ccc3cccc4c3c1c1c2c2cccc3ccc5c6cc(CCCC)ccc6c4c1c5c32

- absorption maximum (in C1CCCCC1): 303 nm
- absorption maximum (in CC#N): 374 nm
- absorption maximum (in CO): 298 nm
- absorption maximum (in ClCCl): 374 nm
- absorption maximum (in O): 330 nm
SMILES: COc1ccccc1-c1nc(-c2ccccc2)c2ccccn12

- absorption maximum (in C1CCCCC1): 568 nm
- absorption maximum (in CCOC(C)=O): 568 nm
SMILES: C#CCNC1=C2C=C(c3cc4n(c3)[B-](F)(F)[N+]3=CC=CC3=C4c3c(C)cc(C)cc3C)C(C)=[N+]2[B-](F)(F)n2c(C)ccc21

- absorption maximum (in ClCCl): 512 nm
SMILES: c1ccc(-[n+]2c3ccc4cccc5c6cccc7c8cccc9ccc2c(c98)c(c67)c3c45)cc1

- absorption maximum (in CN(C)C=O): 592 nm
- absorption maximum (in ClC(Cl)Cl): 590 nm
SMILES: CCCCCCCCCCCCOc1cc2c(cc1OCCCCCCCCCCCC)C1=C3C(=O)N4C=Cc5cc(OCCCCCCCCCCCC)c(OCCCCCCCCCCCC)cc5C4=C3C(=O)N1C=C2

- absorption maximum (in ClCCl): 467 nm
SMILES: Cc1cc(C)n2c1C=[N+]1[N+](=C3C=NC=CN3[B-]1(F)F)[B-]2(F)F

- absorption maximum (in C1CCCCC1): 332 nm
SMILES: CCC(C)(C)c1ccc2c(c1)C(CCOC)(CCOC)c1cc(-c3ccc(-c4ccc5c(c4)C(CCOC)(CCOC)c4cc(C(C)(C)CC)ccc4-5)cc3)ccc1-2
